Measurements from patent US20040024038A1, “GABA enhancers in the treatment of diseases relating to reduced neurosteroid activity” (H. Lundbeck A/S, priority 2000, published 2004).
“Also recorded” adds a separate entry of the source.

How the values were obtained:
hippocampal cells = hippocampal cells after progesterone withdrawal; previous work; cited from earlier work
Female mice = assay: Elevated plus maze in progesterone withdrawal (PWD) model of PMS; assay type: in vivo; conditions: for Time Open Arm, Mean / Grid Cross, Mean (number of total grid crosses, general locomotor activity) / Time Outside Rail, Mean: THIP 1.25 mg/kg; for Time Open Arm, Mean: tested 40 minutes after injection, 10 min plus maze; for Grid Cross, Mean (number of total grid crosses, general locomotor activity) / Time Outside Rail, Mean: 40 minutes after injection
Method: The described model is a hormone withdrawal model of PMS in the rat, based on the prevailing hypothesis that dysphoric mood is predominantly associated with declining hormone levels (i.e., “hormone withdrawal”) in women with PMS.
Female mice (Charles River) were housed in pairs under a 14 hour light and 10 hour dark cycle with food and water ad libitum. All animals were tested during the light portion of the circadian cycle. In female mice, estrous cycle stage was determined by microscopic examination of the vaginal lavage, as described previously (Smith, 1987) and by measures of vaginal impedance (Bartlewski, 1999; Bartos, 1977; Koto, 1987; Koto, 1987) throughout one entire cycle prior to testing. Only females in diestrous were used as subjects.
Progesterone implants were made from silicone tubing (Nalgene Co, 1/16″i.d×1/8″ o.d.) which was cut to size depending on the body weight of the animal (10 mm tubing per 100 g), filled with crystalline progesterone and sealed with silastic medical adhesive (Dow Corning). The sealed capsules were incubated overnight in a solution containing 1% gelatine and 0.9% saline in a water bath (37° C.) with gentle shaking overnight. Sham implants are empty sealed tubes of the same dimensions. Rats were then anesthestized with 2% halothane (2-bromo-2-chloro-1,1,1-trifluroethane) in oxygen and the capsules implanted subcutaneously in the abdomen. Removal of the implants also occurred under the same regime of halothane anesthesia, and implanted s.c. under anesthesia in the abdominal area of the rat (Smith, 1998; Moran, 1998) for 21 days.
Control animals were implanted exactly the same way with empty (sham) silicone capsules. Animals were either sacrificed or tested 24 hrs after removal of the implant (P withdrawal).
On the day of testing, animals were injected with either THIP (1.25 mg/kg) or saline and tested 40 minutes after the injection.
Mice were tested on the plus maze, elevated 50 cm above the floor, in a room with low, indirect incandescent lighting and low noise levels. The plus maze consists of 2 enclosed arms (50×10×40 cm) and 2 open arms (50×10 cm) and is explained in detail in (Pellow, 1985).
The floor of all four arms was marked with grid lines every 25 cm. On the day of testing, each mouse was placed in the testing room for 30-40 minutes prior to testing in order to acclimatise to the situations. At the time of testing, each animal was tested for 10 minutes after exiting a start box in the centre platform of the plus maze. To be considered as an entry into any arm, the mouse must pass the line of the open platform with all four paws. The duration (in seconds) of time spent in the open arm was recorded from the time of entry into the open arm. Decreased time spent in the open arm generally indicates higher levels of anxiety (Pellow, 1985). Other behavioural measures recorded included the duration of time spent (in seconds) beyond the rail. The amount of time that subjects spend in the open portion of the plus maze in the absence of rails is considered to be more sensitive to anxiolytic agents (i.e. agents that would increase the amount of time spent in the open arm) than the amount of time spent in the open arms with rails (Fernandes, 1996). In order to measure general locomotor activity, the number of total grid crosses was counted. Lastly, the duration of time (in sec) spent grooming was also scored. The experimenter was blind to all conditions, and animals were tested in a randomised block design.
Data from the plus maze were analysed in a 2-way ANOVA (implant condition×injection condition) followed by a post-hoc ANOVA and post hoc t-test.

[1] = female control (sham implant) mice

SMILES | Sensitivity of hippocampal cells to the GABA-potentiating effect (hippocampal cells) | Reversal of the PWD effect in the plus maze (Female mice; PWD mice, dose of 1.25 mg/kg, 1.25 mg/kg) | Time Open Arm, Mean (Female mice; female PWD mice (24 hrs after removal of progesterone implant)) | Grid Cross, Mean (number of total grid crosses, general locomotor activity) (Female mice; female PWD mice) | Time Outside Rail, Mean (Female mice; female PWD mice) | Grid Cross, Mean (number of total grid crosses, general locomotor activity) (Female mice; [1]) | Time Outside Rail, Mean (Female mice; [1]) | Time Open Arm, Mean (Female mice; [1])
O=C1Nc2ccc(Cl)cc2C(c2ccccc2Cl)=NC1O (centres unmarked) [lorazepam] | striking insensitivity |  |  |  |  |  |  | 
Oc1noc2c1CCNC2 [THIP, THIP (Gaboxadol)] |  | completely reversed the PWD effect; also recorded: counteract the PWD completely | 157.023 s | 83.333 | 29.503 s | 52.000 | 10.060 s | 38.377 s
